{"source": "patent US9352010B2", "about": "“Treatment of HIV-1 infection and AIDS” (The J. David Gladstone Institutes, priority 2011, dated 2016)", "key": {"[1]": {"system": "AIM2 (Absent in melanoma-2) inflammasome", "conditions": "by preventing ASC oligomerisation; cited from earlier work"}, "[2]": {"system": "human caspases", "conditions": "irreversible broad-spectrum; cited from earlier work"}, "[3]": {"system": "other classes of proteases or other enzymes or receptors", "conditions": "cited from earlier work"}, "[4]": {"system": "patients with hepatic impairment", "conditions": "phase I; cited from earlier work"}, "[5]": {"system": "CI/WR (cold ischemia/warm reperfusion)-induced apoptosis and injury in the liver", "conditions": "in vivo; cited from earlier work"}, "[6]": {"system": "patients with chronic Hepatitis C", "conditions": "oral or intravenous, 5 mg to 400 mg daily; cited from earlier work"}, "[7]": {"biological_target": "caspase-4 (Homo sapiens, UniProt P49662)", "sequence (P49662 81-270 limits assumed)": "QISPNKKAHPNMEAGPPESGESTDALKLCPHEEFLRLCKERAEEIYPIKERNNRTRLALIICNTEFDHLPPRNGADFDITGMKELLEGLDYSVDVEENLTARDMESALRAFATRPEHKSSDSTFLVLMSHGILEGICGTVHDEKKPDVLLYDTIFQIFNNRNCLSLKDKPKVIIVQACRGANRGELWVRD", "sequence (P49662 290-377 limits assumed)": "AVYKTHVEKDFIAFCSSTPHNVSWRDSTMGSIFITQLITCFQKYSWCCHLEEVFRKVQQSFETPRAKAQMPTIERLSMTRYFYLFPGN", "conditions": "read-out: Ki against caspase-4; cited from earlier work"}, "[8]": {"biological_target": "caspase-1 (Homo sapiens, UniProt P29466)", "sequence (P29466 120-297 limits assumed)": "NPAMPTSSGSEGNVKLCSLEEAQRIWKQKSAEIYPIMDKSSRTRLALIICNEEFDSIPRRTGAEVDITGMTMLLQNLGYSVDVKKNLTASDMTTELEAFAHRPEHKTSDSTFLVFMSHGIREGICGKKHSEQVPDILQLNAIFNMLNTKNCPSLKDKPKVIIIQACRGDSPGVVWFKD", "sequence (P29466 317-404 limits assumed)": "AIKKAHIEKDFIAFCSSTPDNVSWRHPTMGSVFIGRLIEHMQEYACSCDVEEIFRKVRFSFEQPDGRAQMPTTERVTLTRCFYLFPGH", "conditions": "cited from earlier work"}, "[9]": {"system": "transient ischemia in rat", "conditions": "cited from earlier work"}, "[10]": {"system": "murine models of inflammatory disease", "conditions": "cited from earlier work"}, "[11]": {"system": "human PBMCs", "conditions": "cited from earlier work"}, "[12]": {"system": "lactate dehydrogenase (LDH) release", "experiment": "LDH release from HIV-1-infected HLACs (pyroptosis)", "type": "cell-based, human", "conditions": "caspase inhibitors 50 μM or 100 μM, 3 days, FIG. 16C", "description": "Caspase-1 activation can lead to a highly inflammatory form of cell death called pyroptosis. To gain insight into how CD4 T cells die, it was determined whether HIV infection in CD4 T cells induce pyroptosis cell death, as measured by lactate dehydrogenase (LDH) release. HLACs were left uninfected or infected with NL4-3 in the presence of no drugs, efavirenz, AMD3100, or caspase inhibitors (50 μM or 100 μM), as indicated in FIG. 16C. After 3 days, the supernatants were assayed for the cytosolic enzyme lactate dehydrogenase (LDH) and the LDH released by dying cells was quantified."}, "[13]": {"system": "CD4 T cells in HIV-1 (NL4-3)-infected HLACs", "experiment": "CD4 T-cell death in HIV-1-infected HLACs, viable CD4 T cells by flow cytometry", "type": "cell-based, human", "conditions": "3 days", "description": "HLACs were left uninfected or infected with HIV-1 (NL4-3 clone) in the presence of AZT, efavirenz, AMD3100, or caspase inhibitors (20 μM each), as indicated in FIG. 16. After 3 days, the percentages of viable CD4 T cells in the cultures were determined by flow cytometry.\nHLACs were left uninfected or infected with NL4-3 in the presence of no drugs, efavirenz, AMD3100, or caspase inhibitors (50 μM or 100 μM), as indicated in FIG. 16B. After 3 days, the percentages of viable CD4 T cells in the cultures were determined by flow cytometry."}, "[14]": {"system": "CD4 T cells in HIV-1 (NL4-3)-infected HLACs", "experiment": "CD4 T-cell death in HIV-1-infected HLACs, viable CD4 T cells by flow cytometry", "type": "cell-based, human", "conditions": "FIG. 15, 4 different donors"}, "[15]": {"system": "CFSE-labeled CD4 T-cells", "type": "cell-based, human", "description": "(A) Experimental strategy to assess indirect cell killing in HIV-1-infected human lymphoid cultures. Fresh human tonsil tissue from a single donor is processed into HLAC, and then separated into two fractions. One fraction is challenged with HIV-1 and cultured for 6 days, allowing viral spread. On day 5, the uninfected fraction is treated with AZT (5 μM) and labeled with CFSE (1 μM). On day 6, the infected and CFSE-labeled (i.e., uninfected) cultures are mixed and co-cultured in the presence of AZT. […] After 6 days of co-culturing, the number of viable CFSE-positive cells is determined by flow cytometry. (B) Flow cytometry analysis of the mixed HLACs. Indirect killing is determined by gating on live CFSE-positive cells in the mixed cultures. Effector cells are either infected or uninfected cells. […] CFSE-labeled cells mixed with uninfected or infected cells were cultured in the presence of 5 μM AZT alone or together with 250 nM AMD3100. Data represent live CFSE-positive cells 6 days after co-culture with infected or uninfected effector cells. […] The absolute numbers of viable CFSE-positive CD4 and CD8 T-cells and B cells were determined. Percentages are normalized to the number of viable CFSE-positive cells co-cultured with uninfected cells in the presence of AZT, as depicted by (*). Error bars represent standard deviations of three samples from the same donor. […] See also FIG. 3.\nHuman tonsil or splenic tissues from routine tonsillectomies were obtained from the National Disease Research Interchange and the Cooperative Human Tissue Network and processed as previously described (Jekle et al., 2003, J Virol 77:5846-5854). In brief, tonsils or spleen were minced, passed through a 40-μm cell strainer, and cultured in 96-well U-bottomed polystyrene plates (2×10^6 cells/well) in medium (200 μl/well) consisting of RPMI 1640 supplemented with 15% heat-inactivated fetal bovine serum, 100 μg/ml gentamicin, 200 μg/ml ampicillin, 1 mM sodium pyruvate, 1% nonessential amino acids (Mediatech), 2 mM L-glutamine, and 1% fungizone (Invitrogen). All HIV-1 infections were carried out with 20-50 ng of HIV-1 p24^gag. Cells were incubated with the virus for 12-16 h, washed extensively, and supplemented with fresh medium. After day 5, infections were monitored by measuring p24gag levels in the culture medium using a FLAQ assay (Hayden et al., 2003, AIDS 17:629-631). Infected and uninfected cultures were manipulated as described for individual experiments. In “indirect killing” assays, unless otherwise stated, drugs were used at the following concentrations: 5 μM AZT; 250 nM AMD3100; 10 μg/ml T20; 100 nM Efavirenz; 1 μM Nevirapine; 30 μM Raltegravir; 60 μM 118-D-24; 5 μM Amprenavir; 5 μM Saquinavir; 5 μM Indinavir. CFSE-labeled cells were activated with PHA (5 μg/ml) and IL-2 (20 ng/ml) 2 days before mixing with effector cells.\nUninfected cells (5×10^6/ml) were labeled with 1 μM CFSE (Molecular Probes C1157), treated with 5 μM AZT for 24 h, and co-cultured with effector cells. CFSE readily diffuses into cells, where intracellular esterases cleave the acetate groups, converting it to a fluorescent, membrane-impermeable dye."}, "[16]": {"system": "IL-1β", "experiment": "Release of 17-kDa IL-1β from isolated tonsillar CD4 T-cells (ionophore stimulus)", "type": "cell-based, human", "conditions": "nigericin 10 μM", "description": "For stimulating the processing and secretion of IL-1, CD4 T-cells were isolated from HLACs by positive selection and treated with 0.5 μM PMA ([…], Calbiochem Cat. #524400) for 6 hours at 37° C. PMA induces large intracellular stores of the 35 kDa pro-IL-1β. Cells were then washed with PBS and treated with 10 μM nigericin (Sigma, Cat. # N7143) overnight at 37° C. The potassium ionophore nigericin mediates an elecroneutral exchange of intracellular K^+ ions for extracellular protons, providing a second inflammatory stimulus, which results in the maturation and release of the bioactive 17 kDa IL-1β(Perregaux et al., 1992, J Immunol 149:1294-1303; Perregaux and Gabel, 1994, J Biol Chem 269:15195-15203).\nIsolated tonsillar CD4 T-cells were treated overnight with nigericin (10 μM) to provide a second inflammatory stimulus, resulting in maturation and release of bioactive 17-kDa IL-1β. Supernatants from the cell cultures were subjected to SDS-PAGE and immunoblotting. 17-kDa IL-1β was released after treatment with nigericin, but not with calcium ionophore A23187 or the nonspecific cation ionophore monensin. Thus, while these cells are primed, they must receive the appropriate proinflammatory signal for pro-IL-1β processing and release. […]"}}, "note": "Residues, ends and D or L forms follow the SMILES beside them. *: point of attachment. Cbz = O=C(OCc1ccccc1)*; CH2F = FC*", "data": [{"molecule": "CC(C)(O)c1coc(S(=O)(=O)NC(=O)Nc2c3c(cc4c2CCC4)CCC3)c1", "note": "[CRID3]", "values": [{"measurement": "AIM2 inflammasome", "setting": "[1]", "result": "inhibited"}]}, {"molecule": "C[C@H](NC(=O)C(=O)Nc1ccccc1C(C)(C)C)C(=O)N[C@@H](CC(=O)O)C(=O)COc1c(F)c(F)cc(F)c1F", "note": "[IDN-6556]", "values": [{"measurement": "caspase inhibition spectrum", "setting": "[2]", "result": "activity against all tested human caspases"}, {"measurement": "inhibition of other classes of proteases or other enzymes or receptors", "setting": "[3]", "result": "no inhibition"}, {"measurement": "tolerability", "setting": "[4]", "result": "well tolerated"}, {"measurement": "CI/WR-induced apoptosis and injury in the liver and other organs", "setting": "[5]", "result": "reduced CI/WR (cold ischemia/warm reperfusion)-induced apoptosis and injury"}, {"measurement": "efficacy (aminotransferase activity)", "setting": "[6]", "result": "efficacious"}, {"measurement": "tolerability", "setting": "[6]", "result": "well tolerated"}]}, {"molecule": "O=C[C@H](CC(=O)O)NC(=O)[C@@H]1CCCN2C(=O)CC[C@H](NC(=O)c3nccc4ccccc34)C(=O)N12", "note": "[VRT-018858]", "values": [{"measurement": "Ki", "setting": "[7]", "result": 0.4, "unit": "nM"}, {"measurement": "selectivity for caspase 1 and caspase-4 against other caspases", "setting": "[8]", "result": "> 100", "unit": "fold"}, {"measurement": "Ki", "setting": "[8]; read-out: Ki against caspase-1", "result": 1.3, "unit": "nM"}, {"measurement": "brain damage induced by transient ischemia", "setting": "[9]", "result": "markedly reduced brain damage"}]}, {"molecule": "CCO[C@@H]1OC(=O)C[C@@H]1NC(=O)[C@@H]1CCCN1C(=O)[C@@H](NC(=O)c1ccc(N)c(Cl)c1)C(C)(C)C", "note": "[VX-765, (S)-1-((S)-2-{[1-(4-Amino-3-chloro-phenyl)-methanoyl]-amino}-3,3-dimethyl-butanoyl)-pyrrolidine-2-carboxylic acid ((2R,3S)-2-ethoxy-5-oxo-tetrahydro-furan-3-yl)-amide]", "values": [{"measurement": "inflammatory response", "setting": "[10]", "result": "reduces inflammatory response"}, {"measurement": "IL-1β secretion", "setting": "[11]; Stack et al.", "result": "blocked IL-1β secretion"}, {"measurement": "IC50", "setting": "[11]; human PBMCs, read-out: IC50, release of LPS-induced IL-1β and IL-18", "result": "~700", "unit": "nM"}]}, {"molecule": "COC(=O)CC[C@H](NC(=O)[C@H](CC(=O)OC)NC(=O)OCc1ccccc1)C(=O)N[C@H](C(=O)N[C@@H](CC(=O)OC)C(=O)CF)C(C)C", "note": "[Z-DEVD-FMK]", "values": [{"measurement": "LDH release from HIV-1 infected cells", "setting": "[12]", "result": "did not prevent the LDH release"}, {"measurement": "CD4 T-cell population whose death was prevented", "setting": "[13]; 20 μM, FIG. 16A", "result": 50, "unit": "%"}, {"measurement": "CD4 T-cell death in HIV-infected cultures", "setting": "[13]; caspase inhibitors 50 μM or 100 μM, FIG. 16B", "result": "did not prevent the death"}, {"measurement": "death of infected CD4 T-cells", "setting": "[14]", "result": "also inhibits death of infected CD4 T cells, however, not as efficient as caspase-1 inhibitors"}, {"measurement": "reduction of cell death", "setting": "[15]; 20 μM, specific inhibition of caspase-3", "result": 50, "unit": "%"}]}, {"molecule": "COC(=O)C[C@H](NC(=O)[C@H](C)NC(=O)[C@@H](NC(=O)OCc1ccccc1)C(C)C)C(=O)CF", "note": "[Z-VAD-FMK, Z-Val-Ala-Asp(OMe)-Fluoro methyl ester] (Cbz-Val-Ala-Asp(OMe)-CH2F)", "values": [{"measurement": "nigericin-induced IL-1β release after pre-treatment with caspase inhibitor", "setting": "[16]", "result": "blocked"}, {"measurement": "death of infected CD4 T-cells", "setting": "[14]", "result": "inhibit the death of infected CD4 T-cells"}, {"measurement": "death of abortively infected CD4 T-cells with caspase inhibitors", "setting": "[15]; 20 μM caspase inhibitor, AZT 5 μM", "result": "completely prevented"}]}]}
